Target: T1, human PDE5 (Homo sapiens, UniProt O76074)
T1 construct: from tissue; host or cells: platelets from fresh blood of human donors (lysate, 10,000 g supernatant)
Assay: Inhibition of the type 5 phosphodiesterase (PDE5) activity, modified SPA test with platelet lysate
Type: biochemical
Details: PDE5 from human platelet lysate, 0.5 μM cGMP
Procedure: Method for Measuring Inhibition of the Type 5 Phosphodiesterase (PDE5) Activity:
As a source for human PDE5, platelets are used. For that purpose, 150 ml fresh blood from human donors anticoagulated with citrate [final concentration 0.3% (w/v)] is centrifuged at 200 g for 10 min to obtain the so-called platelet-rich-plasma (PRP) as a supernatant. 1/10 volume of ACD solution (85 mM Na3-citrate, 111 mM D-glucose, 71 mM citric acid, pH 4.4) is added to 9/10 volume of PRP. After centrifugation (1,400 g, 10 min) the cell pellet is resuspended in 3 ml homogenization buffer (NaCl 140 mM, KCl 3.8 mM, EGTA (ethylene glycol tetraacetic acid) 1 mM, MgCl2 1 mM, Tris-HCl 20 mM, beta-mercaptoethanol 1 mM, pH 8.2) plus protease-inhibitor mix giving rise to the final concentrations of 0.5 mM Pefablock (Roche), 10 μM Leupeptin, 5 μM Trypsininhibitor, 2 mM Benzamidin and 10 μM Pepstatin A. The suspension is sonified and thereafter centrifuged for 15 min at 10,000 g. The resulting supernatant (platelet lysate) is used for enzymatic testings.
PDE5A1 activity is inhibited by the compounds of the invention in a modified SPA (scintillation proximity assay) test, supplied by Amersham Biosciences (see procedural instructions “phosphodiesterase [3H]cAMP SPA enzyme assay, code TRKQ 7090”), carried out in 96-well microtitre plates (MTP's). The test volume is 100 μl and contains 20 mM Tris buffer (pH 7.4), 0.1 mg of BSA (bovine serum albumin)/ml, 5 mM Mg^2+, 1 μM motapizone, 10 nM PDE2 inhibitor 2-(3,4-dimethoxybenzyl)-7-[(1R,2R)-2-hydroxy-1-(2-phenylethyl)propyl]-5-methylimidazo[5,1-f][1,2,4]triazin-4(3H)-one, 0.5 μM cGMP (cyclic guanosine monophosphate) (including about 50,000 cpm of [3H]cGMP as a tracer), 1 μl of the respective compound dilution in dimethylsulfoxide (DMSO) and sufficient PDE5-containing platelet lysat (10,000×g supernatant, see above) to ensure that 10-20 wt % of the cGMP is converted under the said experimental conditions. […] After a preincubation of 5 min at 37° C., the reaction is started by adding the substrate (cGMP) and the assay is incubated for a further 15 min; after that, it is stopped by adding SPA beads (50 μl). In accordance with the manufacturer's instructions, the SPA beads had previously been resuspended in water, but are then diluted 1:3 (v/v) in water; the diluted solution also contains 3 mM […] (IBMX) to ensure a complete PDE activity stop. After the beads have been sedimented (>30 min), the MTP's are analyzed in commercially available luminescence detection de-vices. The corresponding IC50 values of the compounds for the inhibition of PDE activity are deter-mined from the concentration-effect curves by means of non-linear regression.

Row | Molecule | -log IC50 (mol/l) | IC50
1 | 4-(2-Cyclopropylmethoxy-4-fluoro-5-methoxy-phenyl)-5H-pyrrolo[3,2-d]pyrimidine-7-carboxylic acid ((R)-1-acetyl-pyrrolidin-3-yl)-amide [Example 103] | 9.33 | 
2 | 4-(5-Cyclopropylmethoxy-benzo[1,3]dioxol-4-yl)-5H-pyrrolo[3,2-d]pyrimidine-7-carboxylic acid ((R)-1-propionyl-piperidin-3-yl)-amide [Example 47] | 9.64 | 
3 | 4-({1-[4-(5-Cyclopropylmethoxy-benzo[1,3]dioxol-4-yl)-5H-pyrrolo[3,2-d]pyrimidin-7-yl]-methanoyl}-amino)-piperidine-1-carboxylic acid ethyl ester [Example 2] | 10.01 | 
4 | CCC(=O)N1CCC(NC(=O)c2c[nH]c3c(-c4c(OCC5CC5)ccc5c4OCO5)ncnc23)CC1 [Example 1, 4-(5-Cyclopropylmethoxy-1,3-benzodioxol-4-yl)-5H-pyrrolo[3,2-d]pyrimidine-7-carboxylic acid (1-propionyl-piperidin-4-yl)-amide] |  | 0.0776 nM
5 | COCC(=O)N1CCC(NC(=O)c2c[nH]c3c(-c4c(OCC5CC5)ccc5c4OCO5)ncnc23)CC1 [Example 3, 4-(5-Cyclopropylmethoxy-benzo[1,3]dioxol-4-yl)-5H-pyrrolo[3,2-d]pyrimidine-7-carboxylic acid [1-(2-methoxy-acetyl)piperidin-4-yl]-amide] |  | 0.398 nM
6 | CC(=O)N[C@H]1CC[C@H](NC(=O)c2c[nH]c3c(-c4c(OCC5CC5)ccc5c4OCO5)ncnc23)CC1 [Example 4, trans-4-(5-Cyclopropylmethoxy-benzo[1,3]dioxol-4-yl)-5H-pyrrolo[3,2-d]pyrimidine-7-carboxylic acid (4-acetylamino-cyclohexyl)-amide] |  | 0.162 nM
7 | O=C(N[C@H]1CC[C@H](NC(=O)C2CC2)CC1)c1c[nH]c2c(-c3c(OCC4CC4)ccc4c3OCO4)ncnc12 [Example 5, trans-4-(5-Cyclopropylmethoxy-benzo[1,3]dioxol-4-yl)-5H-pyrrolo[3,2-d]pyrimidine-7-carboxylic acid {4-[(1-cyclopropyl-methanoyl)-amino]-cyclohexyl}-amide] |  | 0.123 nM
8 | CCOC(=O)N[C@H]1CC[C@H](NC(=O)c2c[nH]c3c(-c4c(OCC5CC5)ccc5c4OCO5)ncnc23)CC1 [Example 6, trans-[4-({1-[4-(5-Cyclopropylmethoxy-benzo[1,3]dioxol-4-yl)-5H-pyrrolo[3,2-d]pyrimidin-7-yl]-methanoyl}-amino)-cyclohexyl]-carbamic acid ethyl ester] |  | 0.0851 nM
9 | CC(=O)N[C@H]1CC[C@@H](NC(=O)c2c[nH]c3c(-c4c(OCC5CC5)ccc5c4OCO5)ncnc23)CC1 [Example 7, cis-4-(5-Cyclopropylmethoxy-benzo[1,3]dioxol-4-yl)-5H-pyrrolo[3,2-d]pyrimidine-7-carboxylic acid (4-acetylamino-cyclohexyl)-amide] |  | 0.214 nM
10 | O=C(N[C@H]1CC[C@@H](NC(=O)C2CC2)CC1)c1c[nH]c2c(-c3c(OCC4CC4)ccc4c3OCO4)ncnc12 [Example 8, cis-4-(5-Cyclopropylmethoxy-benzo[1,3]dioxol-4-yl)-5H-pyrrolo[3,2-d]pyrimidine-7-carboxylic acid {4-[(1-cyclopropyl-methanoyl)-amino]-cyclohexyl}-amide] |  | 0.224 nM
11 | COCC(=O)N[C@H]1CC[C@@H](NC(=O)c2c[nH]c3c(-c4c(OCC5CC5)ccc5c4OCO5)ncnc23)CC1 [Example 9, cis-4-(5-Cyclopropylmethoxy-benzo[1,3]dioxol-4-yl)-5H-pyrrolo[3,2-d]pyrimidine-7-carboxylic acid [4-(2-methoxy-ethanoylamino)-cyclohexyl]-amide] |  | 1.15 nM
12 | CCOC(=O)N[C@H]1CC[C@@H](NC(=O)c2c[nH]c3c(-c4c(OCC5CC5)ccc5c4OCO5)ncnc23)CC1 [Example 10, cis-[4-({1-[4-(5-Cyclopropylmethoxy-benzo[1,3]dioxol-4-yl)-5H-pyrrolo[3,2-d]pyrimidin-7-yl]-methanoyl}-amino)-cyclohexyl]-carbamic acid ethyl ester] |  | 0.2 nM
13 | CC(=O)N1CCC(NC(=O)c2c[nH]c3c(-c4c(OCC5CC5)ccc5c4OCO5)ncnc23)CC1 [Example 11, 4-(5-Cyclopropylmethoxy-benzo[1,3]dioxol-4-yl)-5H-pyrrolo[3,2-d]pyrimidine-7-carboxylic acid (1-acetyl-piperidin-4-yl)-amide] |  | 0.145 nM
14 | O=C(NC1CCN(C(=O)C2CC2)CC1)c1c[nH]c2c(-c3c(OCC4CC4)ccc4c3OCO4)ncnc12 [Example 12, 4-(5-Cyclopropylmethoxy-benzo[1,3]dioxol-4-yl)-5H-pyrrolo[3,2-d]pyrimidine-7-carboxylic acid [1-(1-cyclopropyl-methanoyl)-piperidin-4-yl]amide] |  | 0.0692 nM
15 | COCC(=O)N1CC[C@@H](NC(=O)c2c[nH]c3c(-c4c(OCC5CC5)ccc5c4OCO5)ncnc23)C1 [Example 13, 4-(5-Cyclopropylmethoxy-benzo[1,3]dioxol-4-yl)-5H-pyrrolo[3,2-d]pyrimidine-7-carboxylic acid [(R)-1-(2-methoxy-acetyl)pyrrolidin-3-yl]-amide] |  | 0.776 nM
16 | O=CN1CC[C@@H](NC(=O)c2c[nH]c3c(-c4c(OCC5CC5)ccc5c4OCO5)ncnc23)C1 [Example 14, 4-(5-Cyclopropylmethoxy-benzo[1,3]dioxol-4-yl)-5H-pyrrolo[3,2-d]pyrimidine-7-carboxylic acid ((R)-1-formyl-pyrrolidin-3-yl)-amide] |  | 1.38 nM
17 | CC(=O)N1CC[C@@H](NC(=O)c2c[nH]c3c(-c4c(OCC5CC5)ccc5c4OCO5)ncnc23)C1 [Example 15, 4-(5-Cyclopropylmethoxy-benzo[1,3]dioxol-4-yl)-5H-pyrrolo[3,2-d]pyrimidine-7-carboxylic acid ((R)-1-acetyl-pyrrolidin-3-yl)-amide] |  | 1 nM
18 | O=C(N[C@@H]1CCN(C(=O)C2CC2)C1)c1c[nH]c2c(-c3c(OCC4CC4)ccc4c3OCO4)ncnc12 [Example 16, 4-(5-Cyclopropylmethoxy-benzo[1,3]dioxol-4-yl)-5H-pyrrolo[3,2-d]pyrimidine-7-carboxylic acid [(R)-1-(1-cyclopropyl-methanoyl)-pyrrolidin-3-yl]amide] |  | 0.389 nM
19 | CCOC(=O)N1CC[C@@H](NC(=O)c2c[nH]c3c(-c4c(OCC5CC5)ccc5c4OCO5)ncnc23)C1 [Example 17, (R)-3-({1-[4-(5-Cyclopropylmethoxy-benzo[1,3]dioxol-4-yl)-5H-pyrrolo[3,2-d]pyrimidin-7-yl]-methanoyl}-amino)-pyrrolidine-1-carboxylic acid ethyl ester] |  | 0.339 nM
20 | O=CN1CC[C@H](NC(=O)c2c[nH]c3c(-c4c(OCC5CC5)ccc5c4OCO5)ncnc23)C1 [Example 18, 4-(5-Cyclopropylmethoxy-benzo[1,3]dioxol-4-yl)-5H-pyrrolo[3,2-d]pyrimidine-7-carboxylic acid ((S)-1-formyl-pyrrolidin-3-yl)-amide] |  | 1.82 nM
21 | CC(=O)N1CC[C@H](NC(=O)c2c[nH]c3c(-c4c(OCC5CC5)ccc5c4OCO5)ncnc23)C1 [Example 19, 4-(5-Cyclopropylmethoxy-benzo[1,3]dioxol-4-yl)-5H-pyrrolo[3,2-d]pyrimidine-7-carboxylic acid ((S)-1-acetyl-pyrrolidin-3-yl)-amide] |  | 2.45 nM
22 | O=C(N[C@H]1CCN(C(=O)C2CC2)C1)c1c[nH]c2c(-c3c(OCC4CC4)ccc4c3OCO4)ncnc12 [Example 20, 4-(5-Cyclopropylmethoxy-benzo[1,3]dioxol-4-yl)-5H-pyrrolo[3,2-d]pyrimidine-7-carboxylic acid [(S)-1-(1-cyclopropyl-methanoyl)-pyrrolidin-3-yl]amide] |  | 0.537 nM
23 | COCC(=O)N1CC[C@H](NC(=O)c2c[nH]c3c(-c4c(OCC5CC5)ccc5c4OCO5)ncnc23)C1 [Example 21, 4-(5-Cyclopropylmethoxy-benzo[1,3]dioxol-4-yl)-5H-pyrrolo[3,2-d]pyrimidine-7-carboxylic acid [(S)-1-(2-methoxy-ethanoyl)-pyrrolidin-3-yl]amide] |  | 1.82 nM

Source: patent US8445501B2, “Substituted 7-carboxamido-pyrrolo[3,2-d]pyrimidines” (Takeda GmbH, priority 2008, dated 2013)
